Experimental data reported in patent US8575340B2, “Purine derivatives and their pharmaceutical uses” (GlaxoSmithKline LLC, priority 2010, dated 2013).

Columns and labels:
Type in all cases: cell-based
Interferon-α = assay: Induction of Interferon-α using cryopreserved human PBMCs; conditions: PBMC, 24 hours incubation, normalised to 1 μM resiquimod and DMSO, read-out: mean pEC50 for induction of Interferon-α (converted)
Procedure: Assay for the Induction of Interferon-α using Cryopreserved Human Peripheral Blood Mononuclear Cells (PBMCs)
Compounds were dissolved in DMSO. Serial 2-fold dilutions with DMSO were prepared and 0.25 μL dispensed into 384-well clear Greiner polypropylene plates.
Blood samples of up to 200 mL were obtained from healthy human donors. Whole blood in 25 mL volumes was overlaid onto 15 mL Ficoll gradients in Leucosep tubes, and centrifuged at 1000 g for 20 minutes. Cells in the band at the plasma/histopaque interface were carefully removed and washed twice with PBS (centrifuged at 400 g for 5 min to harvest). The final pellet was resuspended in freezing medium (90% Heat-inactivated serum, 10% DMSO) to a cell concentration of 4×10^7 cells/mL. The resuspended cells were then cryopreserved (frozen) using a rate controlled freezer, and stored at −140° C. for up to 4 months.
Incubation and Assay for Interferon-α
Immediately prior to assay, vials of cryopreserved (frozen) PBMCs were thawed rapidly in a water bath at 37° C. A 1:10 dilution of the cells in trypan blue was prepared and counted. The PBMCs were then diluted in growth media [RPMI 1640 containing 10% fetal calf serum (invitrogen), Penicillin+[…] (Gibco cat. #25030-024, 1:50), L-Glutamine 2 mM, and 1000 units/mL recombinant human IFN-gamma (Preprotech catalogue #300-02)] to a density of 1×10^6 cells/mL, and 50 uL/well dispensed to 384-well clear Greiner polypropylene plates containing 0.25 μL DMSO or test compound in 0.25 μL DMSO. […] Plates were incubated for 24 hours at 37° C. in 5% CO2.
A multi-isoform immunoassay was used to quantify IFN-α in PBMC supernatants. Rabbit polyclonal antibody against human IFN-α (catalogue number 31101, Stratech Scientific) was diluted 1:10000 in assay buffer (RPMI 1640 containing 10% fetal calf serum, Invitrogen) and 20 μL was added to each well of an MSD (Meso-Scale Discovery) single small-spot 384-well GAR (goat anti-rabbit antibody coated) plate. The plate was incubated for 1 hour at room temperature with vigorous shaking. Following three washes with PBS, 20 μL of cell supernatant were added to each well of the plate. The plate was then incubated for 1 hour at room temperature with vigorous shaking. A pair of monoclonal antibodies to IFN-α (catalogue numbers 21100 and 21112, Stratech Scientific) were labelled with sulfo-TAG (MSD), diluted 1:1000 in assay buffer and 20 μL added to each well of the plate. The plate was further incubated for 1 hour at room temperature with vigorous shaking. Following three washes with PBS, 30 μL of ×2 T buffer (MSD) was added to each well and the plate was read on an MSD Sector 6000 plate reader.
Data were normalised to internal plate controls of 1 μM resiquimod (n=16) and DMSO (n=16). pEC50 values were derived by 4-parameter curve fit with IRLS in ActivityBase, from 11-point, two-fold serial dilution of test compounds.

IFN-α = assay: Induction of Interferon-α using fresh human PBMCs; conditions: PBMC, two donors, 24 hours incubation, percentage of 2 μM resiquimod control, read-out: pEC50 for induction of IFN-α (converted)
Procedure: (§1) Assay for the Induction of Interferon-α and TNF-α using Fresh Human Peripheral Blood Mononuclear Cells (PBMCs)
(§2) Compounds were dissolved and serially diluted in DMSO to give 100× the required concentration range using a Biomek 2000. 1 μL of test compound was transferred into 96-well tissue culture plates using a Biomek FX. Each compound was assayed in duplicate for each donor. Each plate contained a dilution series of the TLR7/8 agonist resiquimod as standard and Column 11 contained 1 μL of 200 μM resiquimod (giving a 2 μM final concentration, used to define the approximate maximal response to resiquimod).
(§3) Blood samples from two human donors were collected into sodium heparin (10 U/mL). 25 mL volumes of whole blood were overlaid onto 15 mL Histopaque in Leucosep tubes which were centrifuged at 800 g for 20 min and the band at the plasma/histopaque interface carefully removed. The collected cells were centrifuged at 2500 rpm for 10 min and the pellet resuspended in 10 mL of media (RPMI 1640 (Low endotoxin) supplemented with 10% v/v foetal calf serum (FCS, low endotoxin) 100 U/mL penicillin G, 100 μg/mL streptomycin, 10 mM L-glutamine and 1× non-essential amino acids). A 1:20 dilution of the cells was prepared using trypan blue and the cells counted using a haemocytometer. The PBMCs were diluted to give a final concentration of 2×10^6/mL and 100 μL of this cells suspension was added to wells containing 1 μL of diluted test compound.
(§4) Incubation and Assays for Interferon-α and TNF-α
(§5) The cell preparations were incubated for 24 hours (37° C., 95% air, 5% CO2) after which a sample of the supernatant was removed using the Biomek FX and assayed for both IFN-α and TNF-α using the MSD (Mesoscale Discovery) electrochemiluminescence assay platform. The IFN-α assay was carried out similarly to that described above. […]
(§6) Cytokine released was expressed as a percentage of the 2 μM resiquimod control (column 11). This percentage was plotted against compound concentration and the pEC50 for the response determined by non-linear least squares curve fitting. […]

TNF-α = assay: Induction of TNF-α using fresh human PBMCs; conditions: PBMC, two donors, 24 hours incubation, percentage of 2 μM resiquimod control, read-out: pEC50 for induction of TNF-α (converted)
Procedure: as §1, §2, §3, §4, §5, §6

| EC50 (IFN-α) | EC50 (TNF-α) | Structure (SMILES) | EC50 (Interferon-α) |
| --- | --- | --- | --- |
| – | – | CCCCOc1nc(N)c2[nH]c(=O)n(CCCC3CCCN(CCO)C3)c2n1 (centres unmarked) [Example 4, 6-Amino-2-(butyloxy)-9-{3-[1-(2-hydroxyethyl)-3-piperidinyl]propyl}-7,9-dihydro-8H-purin-8-one] | < 1580 nM |
| – | – | CCCCOc1nc(N)c2[nH]c(=O)n(CCCC3CCCCN3CCO)c2n1 (centres unmarked) [Example 1, 6-Amino-2-(butyloxy)-9-[3-[1-(2-hydroxyethyl)-2-piperidinyl]propyl]-7,9-dihydro-8H-purin-8-one] | < 1580 nM |
| 0.501 nM | 3.16 µM | CCCCOc1nc(N)c2[nH]c(=O)n(CCCCCC3CCN(CCO)CC3)c2n1 [Example 10, 6-Amino-2-(butyloxy)-9-{5-[1-(2-hydroxyethyl)-4-piperidinyl]pentyl}-7,9-dihydro-8H-purin-8-one] | < 1580 nM |
| – | – | CCCCOc1nc(N)c2[nH]c(=O)n(CCCC3CCN(CCO)CC3)c2n1 [Example 8, 6-Amino-2-(butyloxy)-9-{3-[1-(2-hydroxyethyl)-4-piperidinyl]propyl}-7,9-dihydro-8H-purin-8-one] | < 1580 nM |
| 15.8 nM | 5.01 µM | CCCCOc1nc(N)c2[nH]c(=O)n(CCCCCN3CCN(CCOCC)CC3)c2n1 [Example 17, 6-Amino-2-(butyloxy)-9-(5-{4-[2-(ethyloxy)ethyl]-1-piperazinyl}pentyl)-7,9-dihydro-8H-purin-8-one] | < 1580 nM |
| – | – | CCCCNc1nc(N)c2[nH]c(=O)n(CCCCN3CCN(CCO)CC3)c2n1 [Example 14, 6-Amino-2-(butylamino)-9-{4-[4-(2-hydroxyethyl)-1-piperazinyl]butyl}-7,9-dihydro-8H-purin-8-one] | < 1580 nM |
| – | – | CCCCNc1nc(N)c2[nH]c(=O)n(CCCN3CCN(CCO)CC3)c2n1 [Example 12, 6-Amino-2-(butylamino)-9-[3-[4-(2-hydroxyethyl)-1-piperazinyl]propyl]-7,9-dihydro-8H-purin-8-one] | < 1580 nM |
| – | – | CCCCOc1nc(N)c2[nH]c(=O)n(CCCCCN3CCN(CCOC)CC3)c2n1 [Example 16, 6-Amino-2-(butyloxy)-9-(5-{4-[2-(methyloxy)ethyl]-1-piperazinyl}pentyl)-7,9-dihydro-8H-purin-8-one] | < 1580 nM |
| – | – | CCCCOc1nc(N)c2[nH]c(=O)n(CCCCC3CCCN(CCO)C3)c2n1 (centres unmarked) [Example 5, 6-Amino-2-(butyloxy)-9-{4-[1-(2-hydroxyethyl)-3-piperidinyl]butyl}-7,9-dihydro-8H-purin-8-one] | < 1580 nM |
| 63.1 nM | 15.8 µM | CCCCOc1nc(N)c2[nH]c(=O)n(CC3CCCN(CCO)C3)c2n1 (centres unmarked) [Example 2, 6-Amino-2-(butyloxy)-9-{[1-(2-hydroxyethyl)-3-piperidinyl]methyl}-7,9-dihydro-8H-purin-8-one] | < 1580 nM |
| – | – | CCCCOc1nc(N)c2[nH]c(=O)n(CCCCN3CCN(CCO)CC3)c2n1 [Example 13, 6-Amino-2-(butyloxy)-9-{4-[4-(2-hydroxyethyl)-1-piperazinyl]butyl}-7,9-dihydro-8H-purin-8-one] | < 1580 nM |
| – | – | CCCCOc1nc(N)c2[nH]c(=O)n(CCC3CCN(CCO)CC3)c2n1 [Example 7, 6-Amino-2-(butyloxy)-9-{2-[1-(2-hydroxyethyl)-4-piperidinyl]ethyl}-7,9-dihydro-8H-purin-8-one] | < 1580 nM |
| – | – | CCCCOc1nc(N)c2[nH]c(=O)n(CCCN3CCN(CCO)CC3)c2n1 [Example 11, 6-Amino-2-(butyloxy)-9-{3-[4-(2-hydroxyethyl)-1-piperazinyl]propyl}-7,9-dihydro-8H-purin-8-one] | < 1580 nM |
| – | – | CCCCOc1nc(N)c2[nH]c(=O)n(CCC3CCCN(CCO)C3)c2n1 (centres unmarked) [Example 3, 6-Amino-2-(butyloxy)-9-{2-[1-(2-hydroxyethyl)-3-piperidinyl]ethyl}-7,9-dihydro-8H-purin-8-one] | < 1580 nM |
| – | – | CCCCOc1nc(N)c2[nH]c(=O)n(CCCCC3CCN(CCO)CC3)c2n1 [Example 9, 6-Amino-2-(butyloxy)-9-{4-[1-(2-hydroxyethyl)-4-piperidinyl]butyl}-7,9-dihydro-8H-purin-8-one] | < 1580 nM |
| – | – | CCCCOc1nc(N)c2[nH]c(=O)n(CCCCCN3CCN(CCO)CC3)c2n1 [Example 15, 6-Amino-2-(butyloxy)-9-{5-[4-(2-hydroxyethyl)-1-piperazinyl]pentyl}-7,9-dihydro-8H-purin-8-one] | < 1580 nM |
| – | – | CCCCOc1nc(N)c2[nH]c(=O)n(CC3CCN(CCO)CC3)c2n1 [Example 6, 6-Amino-2-(butyloxy)-9-{[1-(2-hydroxyethyl)-4-piperidinyl]methyl}-7,9-dihydro-8H-purin-8-one] | < 1580 nM |
